In ChEMBL document CHEMBL1143762, “CP5484, a novel quaternary carbapenem with potent anti-MRSA activity and reduced toxicity” (Bioorg Med Chem, 2007):
≈ marks a conversion by molar mass, not a printed value.

How the values were obtained:
Staphylococcus aureus [1] = assay: Antibacterial activity against carbapenem-resistant Staphylococcus aureus M126 HR; assay type: functional
Staphylococcus aureus [2] = assay: Antibacterial activity against methicillin-resistant Staphylococcus aureus M126; assay type: functional
Mus musculus = assay: Acute toxicity in iv dosed ICR mouse assessed as mortality after 24 hrs; assay type: organism-based; conditions: in vivo
Staphylococcus aureus [3] = assay: Antibacterial activity against Staphylococcus aureus 209P JC1; assay type: functional
Staphylococcus aureus [4] = assay: Antibacterial activity against methicillin-resistant Staphylococcus aureus MF126; assay type: functional
[5] = AUC (0-infinity) in mouse at 20 mg/kg, iv administered with 10 mg/kg cilastatin; assay type: ADME, organism-based; design: dose 20 mg/kg, route intravenous, time infinity; conditions: plasma
[6] = Volume of distribution at steady state in mouse at 20 mg/kg, iv administered with 10 mg/kg cilastatin; assay type: ADME, organism-based; conditions: in vivo, read-out: Vss
Escherichia coli = assay: Antibacterial activity against Escherichia coli NIHJ JC2; assay type: functional
Serum [7] = assay: Protein binding in human serum by equilibrium dialysis method; assay type: ADME, cell-free
Staphylococcus aureus [8] = assay: Antibacterial activity against penicillin-resistant Staphylococcus aureus PRC9; assay type: functional
Pseudomonas aeruginosa = assay: Antibacterial activity against Pseudomonas aeruginosa PAO1; assay type: functional
Serum [9] = assay: Protein binding in mouse serum by equilibrium dialysis method; assay type: ADME, cell-free
Haemophilus influenzae = assay: Antibacterial activity against beta lactamase positive amoxicillin/clavulanic acid-resistant Haemophilus influenzae PRC44; assay type: functional
[10] = Urinary excretion of compound in mouse at 20 mg/kg, iv administered with 10 mg/kg cilastatin; assay type: ADME, organism-based; conditions: urine, read-out: Activity
Staphylococcus aureus [11] = assay: Antibacterial activity against methicillin-resistant Staphylococcus aureus; assay type: functional
[12] = Half life in mouse at 20 mg/kg, iv administered with 10 mg/kg cilastatin; assay type: ADME, organism-based; conditions: in vivo
Klebsiella pneumoniae = assay: Antibacterial activity against Klebsiella pneumoniae PCI602; assay type: functional
[13] = Total clearance in mouse at 20 mg/kg, iv administered with 10 mg/kg cilastatin; assay type: ADME, organism-based; conditions: in vivo
Moraxella catarrhalis = assay: Antibacterial activity against Moraxella catarrhalis W-0500; assay type: functional
Staphylococcus aureus [14] = assay: Protective effect against methicillin-resistant Staphylococcus aureus MF126 systemic infection in ICR mouse dosed sc twice a day; assay type: functional

Row | SMILES | MIC (Staphylococcus aureus [1]) | MIC (Staphylococcus aureus [2]) | MLD (Mus musculus) | MIC (Staphylococcus aureus [3]) | further results
1 | CSc1c2sc(C3=C(C(=O)[O-])N4C(=O)[C@H]([C@@H](C)O)[C@H]4[C@H]3C)cn2c[n+]1CCN | 3.13 mg/L (≈ 7.41 µM) | 0.78 mg/L (≈ 1.85 µM) | 500 mg/kg | < 0.006 mg/L | 
2 | CSc1c2sc(C3=C(C(=O)[O-])N4C(=O)[C@H]([C@@H](C)O)[C@H]4[C@H]3C)cn2c[n+]1Cc1cccc(CSC(=N)N)c1 | 0.78 mg/L (≈ 1.4 µM) | 0.39 mg/L (≈ 0.699 µM) | 250 mg/kg | < 0.006 mg/L | 
3 | CSc1c2sc(C3=C(C(=O)[O-])N4C(=O)[C@H]([C@@H](C)O)[C@H]4[C@H]3C)cn2c[n+]1[C@@H]1CN[C@H](C(=O)N(C)C)C1 | 6.25 mg/L (≈ 12 µM) | 3.13 mg/L (≈ 6.02 µM) |  | 0.025 mg/L (≈ 0.0481 µM) | 
4 | CO[C@H](CN)C[n+]1cn2cc(C3=C(C(=O)[O-])N4C(=O)[C@H]([C@@H](C)O)[C@H]4[C@H]3C)sc2c1SC | 3.13 mg/L (≈ 6.71 µM) | 0.78 mg/L (≈ 1.67 µM) | > 500 mg/kg | < 0.006 mg/L | 
5 | CSc1c2sc(C3=C(C(=O)[O-])N4C(=O)[C@H]([C@@H](C)O)[C@H]4[C@H]3C)cn2c[n+]1C[C@@H](CN)OCF | 3.13 mg/L (≈ 6.46 µM) | 0.78 mg/L (≈ 1.61 µM) | 500 mg/kg | < 0.006 mg/L | 
6 | CSc1c2sc(C3=C(C(=O)[O-])N4C(=O)[C@H]([C@@H](C)O)[C@H]4[C@H]3C)cn2c[n+]1CCSCCN | 1.56 mg/L (≈ 3.23 µM) | 0.39 mg/L (≈ 0.808 µM) |  | < 0.006 mg/L | 
7 | CSc1c2sc(C3=C(C(=O)[O-])N4C(=O)[C@H]([C@@H](C)O)[C@H]4[C@H]3C)cn2c[n+]1CCS(=O)(=O)CCN | 3.13 mg/L (≈ 6.08 µM) | 0.78 mg/L (≈ 1.52 µM) | > 500 mg/kg | < 0.006 mg/L | 
8 | CSc1c2sc(C3=C(C(=O)[O-])N4C(=O)[C@H]([C@@H](C)O)[C@H]4[C@H]3C)cn2c[n+]1CCCCCCN | 1.56 mg/L (≈ 3.26 µM) | 0.78 mg/L (≈ 1.63 µM) | 250 mg/kg | < 0.006 mg/L | 
9 | CSc1c2sc(C3=C(C(=O)[O-])N4C(=O)[C@H]([C@@H](C)O)[C@H]4[C@H]3C)cn2c[n+]1C1CCNCC1 | 3.13 mg/L (≈ 6.77 µM) | 1.56 mg/L (≈ 3.37 µM) |  | 0.013 mg/L (≈ 0.0281 µM) | 
10 | CSc1c2sc(C3=C(C(=O)[O-])N4C(=O)[C@H]([C@@H](C)O)[C@H]4[C@H]3C)cn2c[n+]1C[C@@H]1CCCN1 | 3.13 mg/L (≈ 6.77 µM) | 0.78 mg/L (≈ 1.69 µM) |  | < 0.006 mg/L | 
11 | CSc1c2sc(C3=C(C(=O)[O-])N4C(=O)[C@H]([C@@H](C)O)[C@H]4[C@H]3C)cn2c[n+]1CCCNC=N | 3.13 mg/L (≈ 6.75 µM) | 0.78 mg/L (≈ 1.68 µM) |  | < 0.006 mg/L | 
12 | CSc1c2sc(C3=C(C(=O)[O-])N4C(=O)[C@H]([C@@H](C)O)[C@H]4[C@H]3C)cn2c[n+]1CCCCN | 1.56 mg/L (≈ 3.46 µM) | 0.78 mg/L (≈ 1.73 µM) |  | < 0.006 mg/L | 
13 | CSc1c2sc(C3=C(C(=O)[O-])N4C(=O)[C@H]([C@@H](C)O)[C@H]4[C@H]3C)cn2c[n+]1CCCN | 1.56 mg/L (≈ 3.57 µM) | 0.78 mg/L (≈ 1.79 µM) | 250 mg/kg | < 0.006 mg/L | 
14 | CSc1c2sc(C3=C(C(=O)[O-])N4C(=O)[C@H]([C@@H](C)O)[C@H]4[C@H]3C)cn2c[n+]1CC(N)=O | 3.13 mg/L (≈ 7.17 µM) | 1.56 mg/L (≈ 3.57 µM) |  | < 0.006 mg/L | 
15 | CSc1c2sc(C3=C(C(=O)[O-])N4C(=O)[C@H]([C@@H](C)O)[C@H]4[C@H]3C)cn2c[n+]1[C@@H]1CN[C@H](C(=O)O)C1 | 6.25 mg/L (≈ 12.7 µM) | 3.13 mg/L (≈ 6.35 µM) |  | 0.025 mg/L (≈ 0.0508 µM) | 
16 | CSc1c2sc(C3=C(C(=O)[O-])N4C(=O)[C@H]([C@@H](C)O)[C@H]4[C@H]3C)cn2c[n+]1[C@H]1CCNC1 | 1.56 mg/L (≈ 3.48 µM) | 0.78 mg/L (≈ 1.74 µM) | 500 mg/kg | < 0.006 mg/L | 
17 | CSc1c2sc(C3=C(C(=O)[O-])N4C(=O)[C@H]([C@@H](C)O)[C@H]4[C@H]3C)cn2c[n+]1CCCNC(C)=N | 3.13 mg/L (≈ 6.55 µM) | 0.78 mg/L (≈ 1.63 µM) |  | < 0.006 mg/L | 
18 | CSc1c2sc(C3=C(C(=O)[O-])N4C(=O)[C@H]([C@@H](C)O)[C@H]4[C@H]3C)cn2c[n+]1C[C@H](O)CN | 1.56 mg/L (≈ 3.45 µM) | 0.78 mg/L (≈ 1.72 µM) | > 500 mg/kg | < 0.006 mg/L | MIC (Staphylococcus aureus [4]): 1.56 mg/L (≈ 3.45 µM); AUC(0-inf) [5]: 12.6 µg·h/mL; Vd [6]: 0.34 L/kg; MIC (Escherichia coli): 0.05 mg/L (≈ 0.11 µM); Activity (Serum [7]): 12.2%; MIC (Staphylococcus aureus [8]): 0.05 mg/L (≈ 0.11 µM); MIC (Pseudomonas aeruginosa): 6.25 mg/L (≈ 13.8 µM); Activity (Serum [9]): 16%; MIC (Haemophilus influenzae): 0.78 mg/L; dose excreted [10]: 41.9%; MIC50 (Staphylococcus aureus [11]): 0.78 mg/L (≈ 1.72 µM); MIC90 (Staphylococcus aureus [11]): 1.56 mg/L (≈ 3.45 µM); half-life [12]: 13.4 min; MIC (Klebsiella pneumoniae): 0.1 mg/L (≈ 0.221 µM); clearance [13]: 1.61 L/h/kg; MIC (Moraxella catarrhalis): 0.05 mg/L (≈ 0.11 µM); ED50 (Staphylococcus aureus [14]): 0.039 mg
19 | CSc1c2sc(C3=C(C(=O)[O-])N4C(=O)[C@H]([C@@H](C)O)[C@H]4[C@H]3C)cn2c[n+]1[C@H]1CCN(C(C)=N)C1 | 3.13 mg/L (≈ 6.39 µM) | 1.56 mg/L (≈ 3.19 µM) |  | < 0.006 mg/L | 
20 | CSc1c2sc(C3=C(C(=O)[O-])N4C(=O)[C@H]([C@@H](C)O)[C@H]4[C@H]3C)cn2c[n+]1CCCSC(=N)N | 1.56 mg/L (≈ 3.15 µM) | 0.39 mg/L (≈ 0.787 µM) | 250 mg/kg | < 0.006 mg/L | 
21 | CSc1c2sc(C3=C(C(=O)[O-])N4C(=O)[C@H]([C@@H](C)O)[C@H]4[C@H]3C)cn2c[n+]1[C@@H]1CN[C@H](CO)C1 | 3.13 mg/L (≈ 6.54 µM) | 0.78 mg/L (≈ 1.63 µM) |  | < 0.006 mg/L | 
22 | COC(=O)[C@@H]1C[C@H]([n+]2cn3cc(C4=C(C(=O)[O-])N5C(=O)[C@H]([C@@H](C)O)[C@H]5[C@H]4C)sc3c2SC)CN1 | 6.25 mg/L (≈ 12.3 µM) | 1.56 mg/L (≈ 3.08 µM) |  | 0.013 mg/L (≈ 0.0257 µM) | 
23 | CSc1c2sc(C3=C(C(=O)[O-])N4C(=O)[C@H]([C@@H](C)O)[C@H]4[C@H]3C)cn2c[n+]1C[C@H](C)CN | 1.56 mg/L (≈ 3.46 µM) | 0.78 mg/L (≈ 1.73 µM) | 500 mg/kg | < 0.006 mg/L | 
24 | C[C@@H](O)[C@H]1C(=O)N2C(C(=O)O)=C(SCCNC=N)C[C@H]12 [IMIPENEM ANHYDROUS] | 100 mg/L (≈ 334 µM) | 25 mg/L (≈ 83.5 µM) |  | 0.013 mg/L (≈ 0.0434 µM) | MIC (Escherichia coli): 0.1 mg/L (≈ 0.334 µM); MIC (Staphylococcus aureus [8]): 0.39 mg/L (≈ 1.3 µM); MIC (Pseudomonas aeruginosa): 1.56 mg/L (≈ 5.21 µM); MIC (Haemophilus influenzae): 3.13 mg/L; MIC (Klebsiella pneumoniae): 0.39 mg/L (≈ 1.3 µM); MIC (Moraxella catarrhalis): 0.05 mg/L (≈ 0.167 µM)
25 | CN[C@H](CC(C)C)C(=O)N[C@H]1C(=O)N[C@@H](CC(N)=O)C(=O)N[C@H]2C(=O)N[C@H]3C(=O)N[C@H](C(=O)N[C@H](C(=O)O)c4cc(O)cc(O)c4-c4cc3ccc4O)[C@H](O)c3ccc(c(Cl)c3)Oc3cc2cc(c3O[C@@H]2O[C@H](CO)[C@@H](O)[C@H](O)[C@H]2O[C@H]2C[C@](C)(N)[C@H](O)[C@H](C)O2)Oc2ccc(cc2Cl)[C@H]1O [VANCOMYCIN] | 1.56 mg/L (≈ 1.08 µM) | 1.56 mg/L (≈ 1.08 µM) |  | 0.78 mg/L (≈ 0.538 µM) | MIC (Staphylococcus aureus [4]): 0.78 mg/L (≈ 0.538 µM); MIC50 (Staphylococcus aureus [11]): 1.56 mg/L (≈ 1.08 µM); MIC90 (Staphylococcus aureus [11]): 1.56 mg/L (≈ 1.08 µM); ED50 (Staphylococcus aureus [14]): 0.18 mg
